Laboratory results taken from US20240027453A1, “METHOD FOR DETECTION AND QUANTITATIVE MONITORING OF INFECTIONS WITH HERPESVIRUSES” (The Trustees of Princeton University, priority 2020, published 2024).
Where two headings read alike, the source gives them in different places.

Tested on: HCMV
Format: cell-based
Conditions: DE
Procedure: In example herpesvirus PRM assay methods shown herein, cell pellets were lysed in 2% SDS, 100 mM NaCl, 0.5 mM EDTA, 50 mM Tris, pH 8.2, and 50 μg of protein was reduced and alkylated with 25 mM TCEP and 50 mM CAM respectively for 20 min at 70° C. Proteins were then precipitated via methanol chloroform precipitation (Wessel & Flugg, Anal Biochem. 138(1):141-143, 1984), resuspended in 50 mM HEPES, pH 8.2 and digested overnight with trypsin (50:1 protein:enzyme w/w ratio). Digested peptides were desalted by SDB-RPS StageTip as previously described (Lum et al., Cell Syst., 7(6):[…], 2018; Greco et al., Methods Mol Biol 1410:39-63, 2016; Federspiel & Cristea, Methods Mol Biol., 1977:115-143, 2019).
Peptides (1.0 μg on column) were analyzed by LC-MS/MS using a Dionex Ultimate 3000 UHPLC coupled online to an EASYSpray ion source and a Q Exactive HF. Peptides were separated on an EASYSpray C18 column (75 μm×25 cm) heated to 50° C. using a linear gradient of 5% B to 32% B over 60 min at a flow rate of 250 nL/min and were ionized at 1.7 kv. Mobile phase A consisted of 0.1% FA in H2O and mobile phase B consisted of 0.1% FA, 2.9% H2O in ACN.
The PRM method was controlled by a peptide inclusion list with retention time windows of 6 min for selected precursor ions.
The PRM assay was developed and analyzed using the open-source software Skyline (Maclean et al., Bioinformatics 26(7):966-968, 2010). Summed area under the curve of 3-4 transitions per peptide was used for quantitation. Targeted peptides were normalized to host protein loading control peptides. Peptide values for each sample were scaled to the average of each peptide across all runs. The average of multiple peptides was used as the inferred value for the protein measurement when more than one peptide was quantified (Federspiel et al., PLoS Biol. 17(9):e3000437. Doi: 10.1371/journal.pbio.3000437). PRM quantitation data were graphed using the Python Seaborn and Matplotlib libraries.
MRC5 primary human fibroblasts (HFs) (ATCC CCL-171) were used as the model system for HSV-1 and HCMV infections and were cultured in complete growth medium (DMEM supplemented with 10% fetal bovine serum and 1% penicillin-streptomycin antibiotics) at 37° C. and 5% CO2. iSLK.219 cells harboring latent KSHV (a gift from Dr. Britt Glaunsinger, University of California, Berkeley) were grown in complete growth medium supplemented with 500 μg/ml hygromycin (ThermoFisher Scientific, 10687010) at 37° C. and 5% CO2. All cells were used for experiments within a maximum of 10 passages.
Wild type HSV-1 strain 17+ (a gift from Beate Sodeik, Hannover Medical School, Hannover, Germany) was propagated as previously described (Diner et al., 2015). Briefly, PO stocks were generated by electroporating pBAC-HSV-1 into U-2 OS cells. […] In a similar manner, wild type HCMV strain AD169 was produced from BAC electroporation into HFs and working stocks were propagated by infecting HFs at a low level. In both cases, cell-associated virus was released by sonication, combined with supernatant virus, then concentrated by ultracentrifugation (20,000 rpm, 2 hours, 4° C. with SW28 swinging bucket rotor [Beckman Coulter]) over a 10% ficoll (HSV-1) or 20% sorbitol (HCMV) cushion. Virus stock titers were determined by plaque assay for HSV-1 or tissue culture infectious dose (TCID50) for HCMV and infections were performed at a multiplicity of infection (MOI) of 3.
12 hours prior to virus infection or reactivation, cells were treated with either the small molecule drug or DMSO/PBS control at an equivalent volume. […] For infection cycles lasting longer than 24 hours, small molecule drugs were re-added to the cell culture medium every 24 hours. Upon collection, cells were rinsed with PBS, scraped into a microcentrifuge tube, pelleted by centrifugation, and rinsed again with PBS.

Compound: Nc1ccn(C[C@@H](CO)OCP(=O)(O)O)c(=O)n1 [CDV, cidofovir]
- UL119/UL118 (P16739) protein, numerical value of heatmap FIG. 6C (timepoint 72): 0.9178
- UL128 (P16837) protein, numerical value of heatmap FIG. 6C (timepoint 72): 0.3157
- US8 (P09730) protein, numerical value of heatmap FIG. 6C (timepoint 72): 1.064
- US9 (P09729) protein, numerical value of heatmap FIG. 6C (timepoint 72): 1.073
- US12 (P09721) protein, numerical value of heatmap FIG. 6C (timepoint 72): 1.061
- US13 (P09720) protein, numerical value of heatmap FIG. 6C (timepoint 72): 1.062
- US14 (P09719) protein, numerical value of heatmap FIG. 6C (timepoint 72): 0.8113
- US18 (P69334) protein, numerical value of heatmap FIG. 6C (timepoint 72): 1.076
- US22 (P09722) protein, numerical value of heatmap FIG. 6C (timepoint 72): 0.7585
- US23 (P09701) protein, numerical value of heatmap FIG. 6C (timepoint 72): 0.7114
- US24 (P09700) protein, numerical value of heatmap FIG. 6C (timepoint 72): 0.6653
- gB (P06473) protein, numerical value of heatmap FIG. 6C (timepoint 72): 0.7243
- sp|P09710|IR01_HCMVA (P09710) protein, numerical value of heatmap FIG. 6C (timepoint 72): 0.4528
- CVC2 (P16726) protein, numerical value of heatmap FIG. 6C (timepoint 96): 0.8812
- DBP (P17147) protein, numerical value of heatmap FIG. 6C (timepoint 96): 1.215
- HELI (P16736) protein, numerical value of heatmap FIG. 6C (timepoint 96): 0.6134
- NEC1 (P16794) protein, numerical value of heatmap FIG. 6C (timepoint 96): 0.6641
- NEC2 (P16791) protein, numerical value of heatmap FIG. 6C (timepoint 96): 0.9731
- RIR1 (P16782) protein, numerical value of heatmap FIG. 6C (timepoint 96): 0.8478
- TRM1 (P16724) protein, numerical value of heatmap FIG. 6C (timepoint 96): 0.8347
- UL4 (P17146) protein, numerical value of heatmap FIG. 6C (timepoint 96): 1.514
- UL26 (P16762) protein, numerical value of heatmap FIG. 6C (timepoint 96): 1.007
- UL32 (P08318) protein, numerical value of heatmap FIG. 6C (timepoint 96): 0.8551
- UL34 (P16812) protein, numerical value of heatmap FIG. 6C (timepoint 96): 0.6849
- UL35 (P16766) protein, numerical value of heatmap FIG. 6C (timepoint 96): 0.6647
- UL38 (P16779) protein, numerical value of heatmap FIG. 6C (timepoint 96): 0.8749
- UL44 (P16790) protein, numerical value of heatmap FIG. 6C (timepoint 96): 0.9654
- UL48 (P16785) protein, numerical value of heatmap FIG. 6C (timepoint 96): 0.7541
- UL54 (P08546) protein, numerical value of heatmap FIG. 6C (timepoint 96): 1.256
- UL71 (P16823) protein, numerical value of heatmap FIG. 6C (timepoint 96): 1.299
- UL78 (P16751) protein, numerical value of heatmap FIG. 6C (timepoint 96): 0.7903
- UL84 (P16727) protein, numerical value of heatmap FIG. 6C (timepoint 96): 0.7779
- UL95 (P16801) protein, numerical value of heatmap FIG. 6C (timepoint 96): 0.5596
- UL96 (P16787) protein, numerical value of heatmap FIG. 6C (timepoint 96): 0.7142
- UL97 (P16788) protein, numerical value of heatmap FIG. 6C (timepoint 96): 0.8338
- UL98 (P16789) protein, numerical value of heatmap FIG. 6C (timepoint 96): 1.012
- UL102 (P16827) protein, numerical value of heatmap FIG. 6C (timepoint 96): 0.9332
- UL104 (P16735) protein, numerical value of heatmap FIG. 6C (timepoint 96): 0.5729
- UL112/UL113 (P17151) protein, numerical value of heatmap FIG. 6C (timepoint 96): 0.7439
- UL114 (P16769) protein, numerical value of heatmap FIG. 6C (timepoint 96): 0.9743
- UL119/UL118 (P16739) protein, numerical value of heatmap FIG. 6C (timepoint 96): 0.7206
- UL128 (P16837) protein, numerical value of heatmap FIG. 6C (timepoint 96): 0.8111
- US8 (P09730) protein, numerical value of heatmap FIG. 6C (timepoint 96): 0.7796
- US9 (P09729) protein, numerical value of heatmap FIG. 6C (timepoint 96): 0.9079
- US12 (P09721) protein, numerical value of heatmap FIG. 6C (timepoint 96): 0.6688
- US13 (P09720) protein, numerical value of heatmap FIG. 6C (timepoint 96): 0.8741
- US14 (P09719) protein, numerical value of heatmap FIG. 6C (timepoint 96): 0.6845
- US18 (P69334) protein, numerical value of heatmap FIG. 6C (timepoint 96): 1.116
- US22 (P09722) protein, numerical value of heatmap FIG. 6C (timepoint 96): 1.105
- US23 (P09701) protein, numerical value of heatmap FIG. 6C (timepoint 96): 0.7852
- US24 (P09700) protein, numerical value of heatmap FIG. 6C (timepoint 96): 0.7832
